Data as given in patent US20260207578A1, “COMPOUND BASED ON SULFUR/OXYGEN SUBSTITUTED GLUTARIMIDE-BASED ISOINDOLINONE SKELETON AND USE THEREOF” (Gluetacs Therapeutics (Shanghai) Co., LTD., priority 2022, published 2026).

Key:
[1] = target: T1, human Cereblon WT GST-tagged protein (Homo sapiens, UniProt Q96SW2); test: CRBN-binding affinity, HTRF (CEREBLON BINDING kit); conditions: displacement of Thalidomide-Re reagent, 3 hours at room temperature
T1 construct: purchased CISBIO 64BDCRBNPEH
Description: The CEREBLON BINDING kits (specification: 10,000 tests; product number: Catalog #64BDCRBNPEH; CISBIO company) was used to determine the CRBN binding ability of the compounds to be tested through a HTRF method (homogeneous time-resolved fluorescence). The specific methods are as follows: • 1. […] Then, 2.5 μL of human Cereblon WT GST-tagged protein solution was added to each well. Finally, 5 μL of the thoroughly mixed Thalidomide-Re reagent and GST Eu antibody working solution were added to each of the aforementioned wells. […] The blank control wells were sequentially added with 2.5 μL of diluent #9 (1×) solution, 2.5 μL of PROTAC binding buffer, and 5 μL of thoroughly mixed Thalidomide-Re reagent and GST Eu antibody working solution. • 4.
OD 620 nmcompound is the absorbance value of each well of the compounds to be tested of the present disclosure at an emission wavelength of 620 nm. […] OD 620 nmcontrol is the absorbance value of the blank control well at an emission wavelength of 620 nm. […] OD 620 nmStd0 is the absorbance value of the solvent control well at an emission wavelength of 620 nm.

Wee1 = target: T2, Wee1 (Homo sapiens, UniProt P30291+Q96SW2); test: Western-blot assay, substrate protein in hPBMCs; format: cell-based; conditions: hPBMC cells, 24 hours, tested at 50 nM and 500 nM, table does not say which
T2 construct: endogenous in cells; host or cells: human PBMCs (Milecell Biotechnologies)
Description: (§1) The effect of the compounds of the present disclosure on the expression of target proteins in cells was detected using conventional Western blot analysis.
(§2) Human peripheral blood mononuclear cells (hPBMCs) at a density of 1×10^6 cells/mL were thawed according to the PBMC Recovery Protocol (Milecell Biotechnologies Inc, Shanghai).
(§3) After 24 hours of compounds treatment, cells were harvested and lysed in RIPA protein lysate containing phosphatase inhibitors on ice for 30-60 min, followed by centrifugation. The supernatant was aspirated as the extracted total cell protein. The protein concentration of the supernatant was determined using the conventional BCA (Bicinchoninic Acid) assay. The supernatant was then mixed with 4× SDS sample loading buffer, denatured at 95° C. for 5 minutes, and then subjected to SDS-PAGE electrophoresis on a polyacrylamide gel. Proteins were then transferred to a nitrocellulose (NC) membrane, blocked at room temperature for 1-2 h, and processed for antibody incubation and detection according to the manufacturer's instructions (Cell Signaling Technology).
(§4) Half-Maximal Degradation Concentration value (the drug concentration required for degrading proteins by 50%, abbreviated as DC50) reads method: comparing the grayscale values of Western blot bands from drug-treated samples with those from blank DMSO-treated controls, and identifying the drug concentration range at which the grayscale value is half that of the DMSO-treated control bands.
(§5) DC50 values can be calculated using ImageJ software to measure grayscale values of Western blot bands from drug-treated samples. The concentration-response curve is fitted to estimate the drug concentration corresponding to half the grayscale value.
(§6) Target protein remaining (%) refers to the percentage of target protein remaining in hPBMC cells after treatment with protein degrader compounds.
(§7) Calculation method for protein remaining (%): Use ImageJ software to measure grayscale values of Western blot bands from drug (protein degrader)-treated samples. The grayscale value of drug-treated bands is divided by that of internal control protein bands, and the resulting quotient is normalized to obtain the relative percentage of remaining target protein after protein degrader treatment.
(§8) Target protein degradation rate (%)=100%−target protein remaining (%).

GSPT1 = target: T3, GSPT1 (Homo sapiens, UniProt P15170+Q96SW2); test: Western-blot assay, substrate protein in hPBMCs; format: cell-based; conditions: hPBMC cells, 24 hours, tested at 50 nM and 500 nM, table does not say which
T3 construct: endogenous in cells; host or cells: human PBMCs (Milecell Biotechnologies)
Description: as §1, §2, §3, §4, §5, §6, §7, §8

T3 sequence (P15170 whole entry): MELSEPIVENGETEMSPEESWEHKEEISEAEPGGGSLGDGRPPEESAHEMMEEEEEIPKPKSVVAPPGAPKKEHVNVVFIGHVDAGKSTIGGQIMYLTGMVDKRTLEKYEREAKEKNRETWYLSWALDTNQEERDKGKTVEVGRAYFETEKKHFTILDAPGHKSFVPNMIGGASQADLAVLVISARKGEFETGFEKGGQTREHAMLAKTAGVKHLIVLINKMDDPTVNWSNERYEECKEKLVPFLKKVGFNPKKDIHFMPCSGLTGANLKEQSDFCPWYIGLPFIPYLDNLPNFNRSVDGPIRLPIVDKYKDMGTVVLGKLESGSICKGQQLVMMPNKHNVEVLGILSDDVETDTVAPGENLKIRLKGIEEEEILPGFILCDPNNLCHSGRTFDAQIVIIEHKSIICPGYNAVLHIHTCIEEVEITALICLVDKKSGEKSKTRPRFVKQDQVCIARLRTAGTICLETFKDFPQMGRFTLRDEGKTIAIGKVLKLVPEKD
T3 sequence (Q96SW2 whole entry): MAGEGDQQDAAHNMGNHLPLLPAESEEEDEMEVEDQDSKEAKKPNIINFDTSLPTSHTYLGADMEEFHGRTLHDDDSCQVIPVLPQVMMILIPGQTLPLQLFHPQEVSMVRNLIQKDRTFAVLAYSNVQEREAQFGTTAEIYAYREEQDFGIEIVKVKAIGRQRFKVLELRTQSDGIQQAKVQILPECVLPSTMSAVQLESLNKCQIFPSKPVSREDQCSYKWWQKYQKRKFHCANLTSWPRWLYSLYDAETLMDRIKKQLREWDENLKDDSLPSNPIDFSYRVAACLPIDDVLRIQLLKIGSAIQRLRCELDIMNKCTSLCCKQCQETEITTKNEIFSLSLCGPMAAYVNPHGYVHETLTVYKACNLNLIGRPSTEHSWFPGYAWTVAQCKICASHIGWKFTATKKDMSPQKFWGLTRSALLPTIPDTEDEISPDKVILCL
T3 sequence (Q16531 whole entry partner): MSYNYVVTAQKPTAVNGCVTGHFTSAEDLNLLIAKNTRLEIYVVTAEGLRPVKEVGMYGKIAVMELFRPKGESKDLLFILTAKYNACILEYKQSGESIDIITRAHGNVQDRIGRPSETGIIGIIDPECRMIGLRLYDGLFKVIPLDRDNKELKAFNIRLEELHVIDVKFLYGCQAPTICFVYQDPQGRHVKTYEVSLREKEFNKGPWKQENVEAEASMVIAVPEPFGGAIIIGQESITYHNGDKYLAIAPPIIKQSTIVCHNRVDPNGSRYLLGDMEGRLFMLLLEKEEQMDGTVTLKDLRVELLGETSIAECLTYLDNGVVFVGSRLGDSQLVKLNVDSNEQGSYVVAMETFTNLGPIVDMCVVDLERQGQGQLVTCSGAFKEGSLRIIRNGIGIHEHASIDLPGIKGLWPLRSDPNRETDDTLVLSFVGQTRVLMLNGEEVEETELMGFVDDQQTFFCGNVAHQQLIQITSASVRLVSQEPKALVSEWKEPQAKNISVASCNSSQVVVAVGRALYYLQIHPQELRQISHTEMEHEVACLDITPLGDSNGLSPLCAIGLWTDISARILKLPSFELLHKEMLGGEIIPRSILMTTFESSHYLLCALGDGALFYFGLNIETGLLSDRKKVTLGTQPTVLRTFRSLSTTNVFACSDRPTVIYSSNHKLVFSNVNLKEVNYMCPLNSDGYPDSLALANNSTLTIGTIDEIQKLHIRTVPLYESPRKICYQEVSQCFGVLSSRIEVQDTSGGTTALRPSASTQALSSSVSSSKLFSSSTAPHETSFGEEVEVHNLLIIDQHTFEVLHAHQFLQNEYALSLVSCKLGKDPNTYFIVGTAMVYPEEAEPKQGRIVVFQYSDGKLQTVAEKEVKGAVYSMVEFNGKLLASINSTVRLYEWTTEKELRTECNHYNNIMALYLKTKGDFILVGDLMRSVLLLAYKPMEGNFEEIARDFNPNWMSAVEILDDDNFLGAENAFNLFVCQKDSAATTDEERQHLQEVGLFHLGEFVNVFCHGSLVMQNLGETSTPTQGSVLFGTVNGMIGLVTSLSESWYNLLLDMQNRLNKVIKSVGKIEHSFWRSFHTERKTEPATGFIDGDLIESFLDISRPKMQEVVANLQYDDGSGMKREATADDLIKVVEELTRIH
T1 sequence (Q96SW2 whole entry): as the sequence (Q96SW2 whole entry) above
T2 sequence (P30291 whole entry): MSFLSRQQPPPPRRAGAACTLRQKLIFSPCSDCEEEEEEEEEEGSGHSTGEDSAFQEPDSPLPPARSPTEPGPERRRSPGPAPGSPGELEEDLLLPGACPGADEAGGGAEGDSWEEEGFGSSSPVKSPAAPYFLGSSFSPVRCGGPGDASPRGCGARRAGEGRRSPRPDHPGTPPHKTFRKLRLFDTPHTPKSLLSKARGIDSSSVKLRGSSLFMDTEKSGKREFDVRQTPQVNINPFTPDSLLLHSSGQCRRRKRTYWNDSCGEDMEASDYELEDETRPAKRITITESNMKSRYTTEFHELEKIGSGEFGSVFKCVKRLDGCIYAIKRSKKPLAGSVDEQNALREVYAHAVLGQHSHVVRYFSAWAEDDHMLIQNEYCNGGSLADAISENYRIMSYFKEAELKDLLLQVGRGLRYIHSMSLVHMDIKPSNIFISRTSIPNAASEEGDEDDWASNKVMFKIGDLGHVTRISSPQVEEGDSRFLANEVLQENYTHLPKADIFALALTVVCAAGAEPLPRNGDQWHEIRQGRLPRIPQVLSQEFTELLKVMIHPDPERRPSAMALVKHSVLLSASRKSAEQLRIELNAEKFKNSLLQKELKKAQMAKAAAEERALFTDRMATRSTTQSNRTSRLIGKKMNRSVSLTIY
T2 sequence (Q96SW2 whole entry): as the sequence (Q96SW2 whole entry) above
T2 sequence (Q16531 whole entry partner): as the sequence (Q16531 whole entry partner) above

| Structure (SMILES) | IC50 [1] | substrate protein remaining % (Wee1) | substrate protein remaining % (GSPT1) |
| --- | --- | --- | --- |
| O=C1CCC(N2Cc3cc(OC4CCCNCC4)ccc3C2=O)C(=O)N1 (stereo not shown) [GT-07003, 3-(5-(azepan-4-yloxy)-1-oxoisoindolin-2-yl)piperidine-2,6-dione] |  | A (0%≤ substrate protein remaining % ≤80%) |  |
| O=C1CCC(N2Cc3cc(SC4CCC5(CCNCC5)CC4)ccc3C2=O)C(=O)N1 (stereo not shown) [GT-06998, 3-(5-((3-azaspiro[5.5]undecan-9-yl)thio)-1-oxoisoindolin-2-yl)piperidine-2,6-dione] | 1000 to 1900 nM |  |  |
| O=C1CCC(N2Cc3ccc(SC4CNC4)cc3C2=O)C(=O)N1 (stereo not shown) [GT-06993, 3-(6-(azetidin-3-ylthio)-1-oxoisoindolin-2-yl)piperidine-2,6-dione] | 1000 to 1900 nM |  |  |
| O=C1CCC(N2Cc3cc(OC4CN(C(c5ccc(Cl)cc5)c5ccc(Cl)cc5)C4)ccc3C2=O)C(=O)N1 (stereo not shown) [GT-06520, 3-(5-((1-(bis(4-chlorophenyl)methyl)azetidin-3-yl)oxy)-1-oxoisoindolin-2-yl)piperidine-2,6-dione] | 1000 to 1900 nM |  | A (0%≤ substrate protein remaining % ≤80%) |
| CC1(C)CCC(CN2CC(Sc3ccc4c(c3)C(=O)N(C3CCC(=O)NC3=O)C4)C2)=C(c2ccc(Cl)cc2)C1 (stereo not shown) [GT-06757, 3-(6-((1-((4′-chloro-5,5-dimethyl-3,4,5,6-tetrahydro-[1,1′-biphenyl]-2-yl)methyl)azetidin-3-yl)thio)-1-oxoisoindolin-2-yl)piperidine-2,6-dione] | 1000 to 1900 nM |  |  |
| O=C1CCC(N2Cc3cc(OC4CC5CNCC5C4)ccc3C2=O)C(=O)N1 (stereo not shown) [GT-07004, 3-(5-((octahydrocyclopenta[c]pyrrol-5-yl)oxy)-1-oxoisoindolin-2-yl)piperidine-2,6-dione] | 1000 to 1900 nM |  |  |
| O=C1CCC(N2Cc3cc(SC4CC5CNCC5C4)ccc3C2=O)C(=O)N1 (stereo not shown) [GT-06996, 3-(5-((octahydrocyclopenta[c]pyrrol-5-yl)thio)-1-oxoisoindolin-2-yl)piperidine-2,6-dione] | 1000 to 1900 nM |  |  |
| CC1(C)CCC(C(=O)N2CCC(Sc3ccc4c(c3)CN(C3CCC(=O)NC3=O)C4=O)C(F)(F)C2)=C(c2ccc(Cl)cc2)C1 (stereo not shown) [GT-07017, 3-(5-((1-(4′-chloro-5,5-dimethyl-3,4,5,6-tetrahydro-[1,1′-biphenyl]-2-carbonyl)-3,3-difluoropiperidin-4-yl)thio)-1-oxoisoindolin-2-yl)piperidine-2,6-dione] | 1000 to 1900 nM |  |  |
| O=C1CCC(N2Cc3cc(SC4CCNC4)ccc3C2=O)C(=O)N1 (stereo not shown) [GT-04309, 3-(1-oxo-5-(pyrrolidin-3-ylthio)isoindolin-2-yl)piperidine-2,6-dione] |  |  | A (0%≤ substrate protein remaining % ≤80%) |
| O=C1CCC(N2Cc3cc(SC4CCN(Cc5ccccc5-c5ccc(Cl)cc5)C4)ccc3C2=O)C(=O)N1 (stereo not shown) [GT-04195, 3-(5-((1-((4′-chloro-[1,1′-biphenyl]-2-yl)methyl)pyrrolidin-3-yl)thio)-1-oxoisoindolin-2-yl)piperidine-2,6-dione] | 1000 to 1900 nM |  |  |
| O=C1CCC(N2Cc3cc(OC4CNC4)ccc3C2=O)C(=O)N1 (stereo not shown) [GT-03614, 3-(5-(azetidin-3-yloxy)-1-oxoisoindolin-2-yl)piperidine-2,6-dione] |  | A (0%≤ substrate protein remaining % ≤80%) |  |
| O=C1CCC(N2Cc3c(SC4CNC4)cccc3C2=O)C(=O)N1 (stereo not shown) [GT-06992, 3-(4-(azetidin-3-ylthio)-1-oxoisoindolin-2-yl)piperidine-2,6-dione] | 500 to 1000 nM |  |  |

Further lines, with some results ahead:

| IC50 [1] | Structure (SMILES) | substrate protein remaining % (Wee1) | substrate protein remaining % (GSPT1) |
| --- | --- | --- | --- |
| < 500 nM | O=C1CCC(N2Cc3cc(SC4C[C@@H]5CN(C(=O)c6ccccc6-c6ccc(Cl)cc6)C[C@H]5C4)ccc3C2=O)C(=O)N1 (stereo partly drawn) [GT-07023, 3-(5-(((3aS,6aS)-2-(4′-chloro-[1,1′-biphenyl]-2-carbonyl)octahydro-cyclopenta[c]pyrrol-5-yl)thio)-1-oxoisoindolin-2-yl)piperidine-2,6-dione] | A (0%≤ substrate protein remaining % ≤80%) |  |
| < 500 nM | O=C1CCC(N2Cc3cc(SC4CN(CC5=C(c6ccc(F)cc6)CCOC5)C4)ccc3C2=O)C(=O)N1 (stereo not shown) [GT-06513, 3-(5-((1-((4-(4-fluorophenyl)-5,6-dihydro-2H-pyran-3-yl)methyl)azetidin-3-yl)thio)-1-oxoisoindolin-2-yl)piperidine-2,6-dione] |  | A (0%≤ substrate protein remaining % ≤80%) |
| < 500 nM | CC1(C)CCC(C(=O)N2C[C@H]3CC(Oc4ccc5c(c4)CN(C4CCC(=O)NC4=O)C5=O)C[C@H]3C2)=C(c2ccc(Cl)cc2)C1 (stereo partly drawn) [GT-07019, 3-(5-(((3aR,6aS)-2-(4′-chloro-5,5-dimethyl-3,4,5,6-tetrahydro-[1,1′-biphenyl]-2-carbonyl)octahydro-cyclopenta[c]pyrrol-5-yl)oxy)-1-oxoisoindolin-2-yl)piperidine-2,6-dione] | A (0%≤ substrate protein remaining % ≤80%) |  |
| < 500 nM | O=C1CCC(N2Cc3c(OC4CNC4)cccc3C2=O)C(=O)N1 (stereo not shown) [GT-07000, 3-(4-(azetidin-3-yloxy)-1-oxoisoindolin-2-yl)piperidine-2,6-dione] |  |  |
| < 500 nM | O=C1CCC(N2Cc3cc(OC4CN(C(=O)c5ccccc5-c5ccc(Cl)cc5)C4)ccc3C2=O)C(=O)N1 (stereo not shown) [GT-06183, 3-(5-((1-(4′-chloro-[1,1′-biphenyl]-2-carbonyl)azetidin-3-yl)oxy)-1-oxoisoindolin-2-yl)piperidine-2,6-dione] | A (0%≤ substrate protein remaining % ≤80%) |  |
| < 500 nM | O=C1CCC(N2Cc3cc(SC4CCCN(C(=O)c5ccccc5-c5ccc(Cl)cc5)CC4)ccc3C2=O)C(=O)N1 (stereo not shown) [GT-06644, 3-(5-((1-(4′-chloro-[1,1′-biphenyl]-2-carbonyl)azepan-4-yl)thio)-1-oxoisoindolin-2-yl)piperidine-2,6-dione] |  | A (0%≤ substrate protein remaining % ≤80%) |
| 500 to 1000 nM | O=C1CCC(N2Cc3cc(SC4CCNCC4(F)F)ccc3C2=O)C(=O)N1 (stereo not shown) [GT-06999, 3-(5-((3,3-difluoropiperidin-4-yl)thio)-1-oxoisoindolin-2-yl)piperidine-2,6-dione] |  |  |
| 500 to 1000 nM | CC1(C)CCC(C(=O)N2CCC(Sc3ccc4c(c3)CN(C3CCC(=O)NC3=O)C4=O)C2)=C(c2ccc(Cl)cc2)C1 (stereo not shown) [GT-06139, 3-(5-((1-(4′-chloro-5,5-dimethyl-3,4,5,6-tetrahydro-[1,1′-biphenyl]-2-carbonyl)pyrrolidin-3-yl)thio)-1-oxoisoindolin-2-yl)piperidine-2,6-dione] |  |  |
| < 500 nM | O=C1CCC(N2Cc3cc(SC4CN(Cc5ccc(-c6ccco6)s5)C4)ccc3C2=O)C(=O)N1 (stereo not shown) [GT-06517, 3-(5-((1-((5-(furan-2-yl)thiophen-2-yl)methyl)azetidin-3-yl)thio)-1-oxoisoindolin-2-yl)piperidine-2,6-dione] |  |  |
| < 500 nM | O=C1CCC(N2Cc3cc(SC4CN(C(c5ccccc5)c5cccnc5)C4)ccc3C2=O)C(=O)N1 (stereo not shown) [GT-06807, 3-(1-oxo-5-((1-(phenyl(pyridin-3-yl)methyl)azetidin-3-yl)thio)isoindolin-2-yl)piperidine-2,6-dione] |  |  |
| < 500 nM | CC1(C)CCC(C(=O)N2CCCC(Oc3ccc4c(c3)CN(C3CCC(=O)NC3=O)C4=O)CC2)=C(c2ccc(Cl)cc2)C1 (stereo not shown) [GT-07018, 3-(5-((1-(4′-chloro-5,5-dimethyl-3,4,5,6-tetrahydro-[1,1′-biphenyl]-2-carbonyl)azepan-4-yl)oxy)-1-oxoisoindolin-2-yl)piperidine-2,6-dione] |  |  |
| < 500 nM | COc1ccc(C(c2ccc(OC)cc2)N2CC(Sc3ccc4c(c3)CN(C3CCC(=O)NC3=O)C4=O)C2)cc1 (stereo not shown) [GT-06923, 3-(5-((1-(bis(4-methoxyphenyl)methyl)azetidin-3-yl)thio)-1-oxoisoindolin-2-yl)piperidine-2,6-dione] |  |  |
| 500 to 1000 nM | O=C1CCC(N2Cc3cc(SC4CN(C(c5ccc(Cl)cc5)c5ccc(Cl)cc5)C4)ccc3C2=O)C(=O)N1 (stereo not shown) [GT-06504, 3-(5-((1-(bis(4-chlorophenyl)methyl)azetidin-3-yl)thio)-1-oxoisoindolin-2-yl)piperidine-2,6-dione] |  |  |
